# Test results from patent US4011221A, “S-Inosylcysteine and a process for producing the same” (Funai Pharmaceutical Industries, Ltd., priority 1974, dated 1977).
# Assays:
# chick embryo heart cells [1] = test: Effect on proliferation of chick embryo heart cells in the presence of a growth inhibitor, KCN (Experiments 3 and 4); format: cell-based; settings: for activity at 50 µg/mL / activity at 20 µg/mL: Gallus gallus; for activity at 20 µg/mL: 24 h
# Experimental: After washing with calcium and magnesium-free phosphate buffered saline (PBS), the pieces of hearts were treated with a solution of 0.1% trypsin in PBS freed from calcium and magnesium ions, and the supernatant fraction was discarded. The residue was treated with a solution of 0.1% trypsin in PBS freed from calcium and magnesium ions, and the supernatant fractions containing isolated cells were collected. The procedure was repeated 3 times. The supernatant fractions were combined and diluted with cold culture medium containing 10% fetal calf serum, sodium penicillin G (100 units per ml) and sulfate streptomycin (1 μg per ml), and centrifuged at 150 xG. […] One ml of the suspension was poured into each of 28 culture tubes which were equally divided into 7 groups. The cells were cultured at 37° C in an incubator. After 1 day of incubation the culture medium of the tubes was removed and 1 ml of each culture medium containing compound shown in Table I was added thereto. After additional 3 days of incubation the culture medium was removed and the cells were then treated with 1 ml of 0.1 M citric acid containing 0.1% crystal violet. The number of cells was counted with a hemocytometer in quadruplicate after vigorous shaking. […] After 3 days of incubation, the culture medium was removed and 1 ml of each culture medium containing compounds shown in Table II was added thereto. After an additional 1 day of incubation the number of cells was counted. […] Method: The culture procedure for chick embryo heart cells was employed as described in Experiment 1. After one day of incubation, the culture medium was removed and 1 ml of each culture medium containing KCN (1.7 μg per ml) and compounds shown in Table III were added thereto.
# chick embryo heart cells [2] = test: Effect on proliferation of chick embryo heart cells (Experiments 1 and 2); format: cell-based; settings: for Cell number + S.E. / activity at 50 µg/mL: Experiment 1, 50 μg/ml; for Cell number + S.E.: 3 days incubation; for activity at 50 µg/mL / activity at 20 µg/mL: Gallus gallus, control = 100.0; for activity at 50 µg/mL: 72 h, read-out: Growth rate %; for Cell number ± S.E. / activity at 20 µg/mL: Experiment 2, 20 μg/ml; for Cell number ± S.E.: 1 day with compound after 3 days of incubation; for activity at 20 µg/mL: 24 h, read-out: Growth rate (%); for cell-proliferating activity (in words): summary statement, Tables I to V
# Experimental: A. Effect of S-inosylcysteine on proliferation of chick embryo heart cells.
# (§1) Method: The hearts excised from 13-day-old chick embryos were cut into pieces 1 to 2 mm in diameter under sterile conditions. After washing with calcium and magnesium-free phosphate buffered saline (PBS), the pieces of hearts were treated with a solution of 0.1% trypsin in PBS freed from calcium and magnesium ions, and the supernatant fraction was discarded. The residue was treated with a solution of 0.1% trypsin in PBS freed from calcium and magnesium ions, and the supernatant fractions containing isolated cells were collected. The procedure was repeated 3 times. The supernatant fractions were combined and diluted with cold culture medium containing 10% fetal calf serum, sodium penicillin G (100 units per ml) and sulfate streptomycin (1 μg per ml), and centrifuged at 150 xG. The resulting pellet was washed twice with the culture medium and diluted cautiously with the same culture medium to give a suspension which contains 200,000 cells per ml. One ml of the suspension was poured into each of 28 culture tubes which were equally divided into 7 groups. The cells were cultured at 37° C in an incubator. After 1 day of incubation the culture medium of the tubes was removed and 1 ml of each culture medium containing compound shown in Table I was added thereto. After additional 3 days of incubation the culture medium was removed and the cells were then treated with 1 ml of 0.1 M citric acid containing 0.1% crystal violet. The number of cells was counted with a hemocytometer in quadruplicate after vigorous shaking.
# (§2) Method: The culture procedure for chick embryo heart cells was employed as described in Experiment 1. After 3 days of incubation, the culture medium was removed and 1 ml of each culture medium containing compounds shown in Table II was added thereto. After an additional 1 day of incubation the number of cells was counted.
# pylorus ligation ulcer = test: Effect on pylorus ligation ulcer in rats (Experiments 6 and 7); format: in vivo, Male Wister rats; settings: for anti-ulcer activity (in words): summary statement, Tables VI to VIII
# Experimental: a. Effect of S-inosylcysteine on pylorus ligation ulcer.
# (§3) Method: Male Wister rats (Keari Gifu-Lab.), aged 7 weeks were used. After fasting for 48 hours, rats weighing 210 to 230 g were divided into 6 groups of 10 rats. The pylorus of stomach was ligated under light anesthesia with pentobarbital sodium (25 mg per kg, i.p.). Immediately after the ligation, a psysiological saline was orally administered to one group and a solution of each tested compound (50 mg per kg) was orally administered to the remaining 5 groups. After these rats were kept without food and water for 10 hours from the ligation, the stomach was removed under anesthesia with pentobarbital sodium (30 mg per kg, i.p.). The gastric contents were aspirated and the stomach was fixed by means of the injection of 10 ml of a 2% formalin solution into the lumen. The stomach was opened along its greater curvature. The severity of the lesion of the rumen, that is, the degree of ulcer was expressed as ulcer index according to the method of Yokotani (Folia pharmacol. Japon. 56, 1373, (1960). The results are shown in Table VI.
# *Inhibition rate was calculated as follows: […]
# Method: The same method as described in Experiment 6 was employed. The
# effect of S-inosyl-L-cysteine
# on pylorus ligation ulcer was examined with intramuscular administration.
# chick embryo heart cells [3] = test: Effect on proliferation of chick embryo heart cells in the presence of 6-mercaptopurine (Experiment 5); format: cell-based; settings: Experiment 5, 20 μg/ml, 6-mercaptopurine 5 μg per ml; for activity at 20 µg/mL: Gallus gallus, 24 h
# Experimental: as §1, §2
# Method: Same as in Experiment 2 except that 6-mercaptopurine (5 μg per
# ml) was added to each culture
# gastric secretion = test: Effect on gastric secretion in pylorus-ligated rats; format: in vivo, Male Wister rats; settings: 50 mg/kg, p.o., 5 hours from ligation
# Experimental: as §3
# b. Effect of S-inosylcysteine on gastric secretion. Method: The rats were ligated in the same manner as in Experiment 6, and divided into 2 groups of 10 rats. Immediately after the ligation, a physiological saline or a solution of S-inosyl-L-cysteine was orally administered. After the rats were kept without food and water for 5 hours from the ligation, the esophagus was ligated and the stomach was removed under anesthesia with pentobarbital sodium (30 mg per kg. i.p.). The gastric contents were collected and centrifuged at 2,000 rpm for 10 minutes. The volume of supernatant was measured and its pH was determined with a pH meter (Hitach-Horiba Type M-5). Free-HCl, total-HCl and total-acidity in the supernatant were determined by the titration with 1/50 N NaOH using Topfer's solution and phenolphtalein solution as an indicator.
# [4] = Experiment 3, 50 μg/ml, KCN 1.7 μg per ml
# [5] = Experiment 4, 20 μg/ml, KCN 1.7 μg per ml
# [6] = Experiment 4, 20 μg/ml, KCN 1.7 μg per ml, KCN control = 100.0, read-out: Growth rate (%)
# [7] = Experiment 4, 20 μg/ml, KCN 1.7 μg per ml, simultaneous with Experiment 2, read-out: Growth rate (%) with respect to control of Table II
# [8] = Experiment 6, 50 mg/kg, p.o., 10 hours from ligation
# [9] = its control = 100.0, read-out: Growth Rate (%)
# [10] = simultaneous with Experiment 2, read-out: Growth rate (%) with respect to control of Table II
# [11] = Experiment 3, 50 μg/ml, KCN 1.7 μg per ml, KCN control = 100.0, read-out: Growth Rate %
# [12] = Experiment 3, 50 μg/ml, KCN 1.7 μg per ml, simultaneous with Experiment 1, read-out: Growth rate (%) with respect to control of Table I
Structure (SMILES),Cell number ± S.E. (chick embryo heart cells [1]; [4]),Cell number + S.E. (chick embryo heart cells [2]),activity at 50 µg/mL (chick embryo heart cells [2]),Cell number ± S.E. (chick embryo heart cells [1]; [5]),activity at 20 µg/mL (chick embryo heart cells [1]; [6]),activity at 20 µg/mL (chick embryo heart cells [1]; [7]),"Inhibition rate (%) of ulcer (pylorus ligation ulcer; Experiment 6, 50 mg/kg, p.o.)",Mean ulcer index ± S.E. (pylorus ligation ulcer; [8]),Cell number ± S.E. (chick embryo heart cells [3]),activity at 20 µg/mL (chick embryo heart cells [3]; [9]),activity at 20 µg/mL (chick embryo heart cells [3]; [10]),Cell number ± S.E. (chick embryo heart cells [2]),activity at 20 µg/mL (chick embryo heart cells [2]),activity at 50 µg/mL (chick embryo heart cells [1]; [11]),activity at 50 µg/mL (chick embryo heart cells [1]; [12]),further results
Nc1ncnc2c1ncn2[C@@H]1O[C@H](CO)[C@@H](O)[C@H]1O [adenosine],33.3 ± 1.9 ×10^4 cells,44.1 ± 5.6 ×10^4 cells,86.6%,–,–,–,–,–,–,–,–,–,–,–,–,activity at 50 µg/mL (chick embryo heart cells [1]; read-out: Growth Rate %): 104%; activity at 50 µg/mL (chick embryo heart cells [1]; read-out: Growth rate (%) with respect to control of Table I): 65.4%
Nc1ncnc2c1ncn2[C@@H]1O[C@H](CSCC[C@H](N)C(=O)O)[C@@H](O)[C@H]1O [S-adenosyl-L-homocysteine],–,–,–,65.2 ± 1.8 ×10^4 cells,99.1%,79.9%,19%,11.3 ± 0.7,75.7 ± 1.6 ×10^4 cells,111%,92.8%,71.5 ± 3.4 ×10^4 cells,87.6%,–,–,–
OC[C@H]1O[C@@H](n2cnc3c(O)ncnc32)[C@H](O)[C@@H]1O [inosine],37.2 ± 4.4 ×10^4 cells,54.1 ± 2.0 ×10^4 cells,106%,–,–,–,–,–,–,–,–,–,–,116%,73.1%,–
Nc1ncnc2c1ncn2[C@@H]1O[C@H](CSC[C@H](N)C(=O)O)[C@@H](O)[C@H]1O [S-adenosyl-L-cysteine],–,–,–,64.2 ± 3.0 ×10^4 cells,97.6%,78.7%,13%,12.1 ± 1.2,70.7 ± 1.2 ×10^4 cells,104%,86.6%,74.8 ± 4.7 ×10^4 cells,91.7%,–,–,–
N[C@@H](CCSC[C@H]1O[C@@H](n2cnc3c(=O)[nH]cnc32)[C@H](O)[C@@H]1O)C(=O)O [S-inosyl-L-homocysteine],–,–,–,73.5 ± 1.7 ×10^4 cells,112%,90.1%,12%,12.3 ± 1.1,65.3 ± 3.7 ×10^4 cells,95.6%,80%,78.2 ± 7.5 ×10^4 cells,95.8%,–,–,–
Nc1nc2c(ncn2[C@@H]2O[C@H](CSCC[C@H](N)C(=O)O)[C@@H](O)[C@H]2O)c(=O)[nH]1 [S-guanosyl-L-homocysteine],–,–,–,66.3 ± 1.4 ×10^4 cells,101%,81.3%,-8%,15.0 ± 1.8,72.3 ± 5.5 ×10^4 cells,106%,88.6%,69.2 ± 1.8 ×10^4 cells,84.8%,–,–,–
N[C@@H](CS)C(=O)O [L-cysteine],41.9 ± 6.3 ×10^4 cells,50.5 ± 1.3 ×10^4 cells,99.2%,–,–,–,–,–,–,–,–,–,–,131%,82.3%,–
"N[C@@H](CSC[C@H]1O[C@@H](n2cnc3c(=O)[nH]cnc32)[C@H](O)[C@@H]1O)C(=O)O [S-inosyl-L-cysteine, 5'-S-(2-amino-2-carboxyethyl)-5'-thioinosine]",50.9 ± 1.5 ×10^4 cells,65.4 ± 1.6 ×10^4 cells,128%,85.6 ± 0.4 ×10^4 cells,130%,105%,42%,8.1 ± 1.1,85.8 ± 2.9 ×10^4 cells,126%,105%,97.8 ± 3.8 ×10^4 cells,120%,159%,100%,"Free-HCl, inhibition rate % (gastric secretion): 36%; Total-HCl, inhibition rate (%) (gastric secretion): 23%; Total-acidity (gastric secretion): 83.2 mEq/l; Total-acidity, inhibition rate (%) (gastric secretion): 22%; Volume, inhibition rate (%) (gastric secretion): 38%; pH (gastric contents supernatant) (gastric secretion): 1.50 ± 0.06; Free-HCl (gastric secretion; ± S.E.): 42.8 ± 6.0 mEq/l; Total-HCl (gastric secretion; ± S.E.): 73.8 ± 6.4 mEq/l; Volume (gastric contents supernatant) (gastric secretion; ± S.E.): 5.3 ± 0.5 mL; Inhibition rate (%) of ulcer (pylorus ligation ulcer; Experiment 7, 50 mg/kg, i.m.): 59%; Mean ulcer index ± S.E. (pylorus ligation ulcer; Experiment 7, 50 mg/kg, i.m.): 5.1 ± 1.6; anti-ulcer activity (in words) (pylorus ligation ulcer; listed as S-inosyl cysteine): superior to those of known related compounds (7) to (10); anti-ulcer activity (in words) (pylorus ligation ulcer; listed as S-inosylsteine): excellent; cell-proliferating activity (in words) (chick embryo heart cells [2]; listed as S-inosycysteine): superior to those of known related compounds (2) to (10); cell-proliferating activity (in words) (chick embryo heart cells [2]; listed as S-inosylcysteine): remarkable; cell-proliferating activity (in words) (chick embryo heart cells [2]; listed as S-inosylsteine): excellent"
